Results: patent US11884932B2, “In vitro production of medial ganglionic eminence precursor cells” (The Regents of the University of California, priority 2013, dated 2024)

How the values were obtained:
[1] = test system: spontaneous PSCs recorded from hESC-derived neurons post-injection; assay: Whole-cell recording of spontaneous PSCs of transplanted hESC-derived neurons in mouse brain slices; assay type: cell-based, human; settings: mouse brain slices 7 MPI
Method: (§1) For cultured neurons, the bath was constantly perfused with fresh recording medium containing (in mM): 145 NaCl, 3 KCl, 3 CaCl2, 2 MgCl2, 10 HEPES, 8 glucose. Transverse slices (300 μm) were cut on a […] (Leica VT1200S) and maintained in an incubation chamber with aCST containing (in mM): 110 Choline Cl, 2.5 KCl, 0.5 CaCl2, 7 MgCl2, 1.3 NaH2PO4, 25 NaHCO3, 10 glucose. Slice recording medium contained (in mM): 125 NaCl, 2.5 KCl, 2 CaCl2, 1.3 MgCl2, 1.3 NaH2PO4, 25 NaHCO3, 10 glucose. Recordings were made with an Axon 700B patch-clamp amplifier and 1320A interface (Axon Instruments). Signals were filtered at 2 kHz using amplifier circuitry, sampled at 10 kHz, and analyzed using Clampex 10.2 (Axon Instruments).
To examine whether hESC-derived MGE-like cells could develop into functional interneurons that synaptically integrate in vivo, we performed whole-cell recordings of RFP+ human cells in mouse brain slices seven MPI. […]
FIG. 7. hESC-derived MGE-like Interneuron Precursor Cell Maturation and Functional Integration in the Mouse Brain. • (A) Day 35 ML cultures FACS-sorted for NKX2.1-GFP and PSA-NCAM, and injected into newborn mouse cortex. […] Scale Bar: 50 μm. • (D-E) Quantification of histology at 2 (black), 4 (orange), and 7 (blue) MPI, and of SST, CALB, and CALR (E). […] Inset: RFP fluorescence of filled neuron 7 MPI. […]

hESC-derived cultures [2] = assay: Cells expressing telencephalic FOXG1 in hESC-derived cultures; assay type: cell-based, human
Method: Cultured cells were fixed in 4% paraformaldehyde for 10-20 min. Mouse brains were fixed overnight-4° C. after trans-cardial perfusion and sectioned (50 μm) by vibratome or sliding microtome. EBs and human tissue were sectioned (25 μm) by cryostat. Cells and sections were stained: 5-10 min antigen retrieval with boiling 0.01M citrate buffer pH=6, 1 hr block with 5% serum and 0.1% triton X100 in PBS, overnight-4° C. primary antibody in block buffer (except triton-free buffer used for GABA antibody), wash 3× in PBS+tritonX100, 2 hr secondary antibody (Invitrogen), wash 4× in PBS+tritoriX100.
(§2) SHH pathway activation was required for NKX2,1-GFP+ cell derivation. In this study, we used 1-2 μM of purmorphamine or 500 ng/mL of SHH. […] Addition of an FGF inhibitor (PD173074) from the onset of differentiation (d0-25) caused a decrease in cells expressing FOXG1 (55%), but addition of the same inhibitor on day 14 (d14-25) had no effect on FOXG1 levels (not shown). Therefore, similar to fetal forebrain development, early inhibition of WNT and activation of FGF signaling pathways, along with SHH activation, play roles in patterning the ventral-telencephalic-like identity of hESC-derived cultures.

GABAA receptor = assay: Whole-cell patch recording of post-synaptic currents in cultured hESC-derived neurons and co-cultured human fetal cortical neurons; assay type: cell-based
Source text: The patch electrodes were made from borosilicate glass capillaries (B-120-69-15, Sutter Instruments) with a resistance in the range of 5-7 MΩ. The pipettes were tip-filled with internal solution containing (in mM): 125 K-gluconate, 15 KCl, 10 HEPES, 4 MgCl2, 4 Na2ATP, 0.3 Na3GTP, 10 Tris-phosphocreatine, 0.2 EGTA.
as §1
Photostimulation was delivered by mercury lamp (75 mW) with a GFP excitation bandpass filter and light pulses were generated by Maste-8 (A.M.P.I.) through a high-speed shutter (UNIBLITZ), the power density of the blue light (Boyden, E. S., et al. (2005). Nat Neurosci 8, 1263-1268) (Nagel, G., et al. (2003). Proc Natl Acad Sci USA 100, 13940-13945) was 8-12 mW·mm−2, measured with a power meter (Coherent Instruments).
The percentage of neurons receiving sPSCs increased from 33.3% at eight WPD (n=12) to 82.1% at 12 WPD (n=28, FIG. 6C). To confirm that GABAergic neurons were able to send outputs to neighboring neurons, we transfected half of the neurons with Synapsin promoter—Channelrhodopsin2-EYFP (ChR2-EYFP) by lentiviral infection. […] The reversal potential of light-evoked PSCs was −32.7 mV (FIGS. 6F and 6G), close to the expected Cl-reversal potential under our recording conditions [−37.3 mV=−53.4 mV (by Nernst equation)±16.1 mV (junction potential)]. […]

HES-3 NKX2.1GFP/w hESCs = assay: NKX2.1-GFP+ differentiation efficiency of hESCs by FACS / flow cytometry; assay type: cell-based, human; settings: for NKX2.1-GFP+ MGE precursor-like cell efficiency: KSR/B27 media
Method: HES-3 hESCs were maintained on irradiated mouse embryonic fibroblasts (Millipore) in knockout DMEM with 20% knockout serum replacement, 1% nonessential amino acids (NEAA), 1% pen-strep-glutamine, 0.0008% 2-mercaptoethanol, and 10 ng/mL FGF-basic (Invitrogen), Differentiation was initiated by CollagenaseIV/Dispase (1 mg/mL each; Invitrogen) preferential selection for hESC colonies. Colonies were trypsinized to single cells, and, as described (Eiraku, M., et al. (2008). Cell Stem Cell 3, 519-532), ˜10,000 cells/well were plated into low-attachment round-bottom 96-well plates (Corning or NOF) to form one sEB/well in optimized B27+5F; differentiation medium #1, consisting of Neurobasal-A, 2% B27-vitamin A (Invitrogen), and the same supplements in hESC media but without FGF. Also, Y27632 (10 μM), SB3431542 (10 μM), Purmorphamine (1-2 μM) (Stemgent), BMPRIA-Fc (1.5 μg/mL), and DIKK1 (1 μg/mL) (Invitrogen) were added.
On ˜d7, Y27632 was removed, and sEBs were plated adherent en-bloc onto matrigel (BD Biosciences) coated plates in medium #1. On ˜d14, factors were removed from medium #1 except for Purmorphamine. On ˜d25, aEBs were trypsinized and replated as dissociated monolayer onto matrigel or polyornithine/laminin coated plates. DAPT (10 μM) (Tocris) was added from ˜d27-d30. After FACS sorting on day ˜35, GFP+ cells could be replated (10-25,000 cells/cm2) onto cortical glial cells in medium #1. Glial cells were prepared from newborn mouse cortex, passaged at least 3× with serum to remove mouse neurons, and pre-treated at confluency with Ara-C (5 μM) (Sigma). Every 3-4 days, half of media was replaced with differentiation medium #2: Neurobasal-A, 2% B27+vitamin A, (Invitrogen) and same supplements in medium #1, without factors, except NEAA and Purmorphamine were removed, and BDNF (25 ng/mL) was added (R&D Systems). Media was replaced every 3-4 days.
FACS analysis and sorting was performed on FACS Aria II (BD Biosciences). Cells were gated for live cell DAN exclusion, small scatter size, single cells, NKX2.1-GFP signal, and PSA-NCAM-APC or -PE (Miltenyi Biotech) signal intensity. GFP-negative cells and isotype antibody (Santa Cruz) controls were used. Data was analyzed with Flowjo (Treestar) software. For live cell imaging, differentiation was similar to above, but 5,000 cells/well were plated into Aggrewell-800 plates (Stem Cell Technologies), and sEBs were plated en-bloc on day 4-7. Imaging was performed by time-lapse confocal microscopy with temperature (37° C.) and gas (5% O2, 5% CO2, 90% N2) controls (Leica SP5).
FIG. 24, Bottom Panel: Flow cytometry was used to determine the efficiency of generation of NKX2.1GFP+ MGE precursor cells using the small molecule inhibitors. The efficiency of generation of NKX2.1GFP+ MGE precursor cells was determined as what percent of cells of the cells analyzed were NKX2.1GFP+ MGE precursor cells.

hESC-derived cultures [3] = assay: Viability of differentiating hESC cultures; assay type: cell-based, human; settings: 2-6 μM purmorphamine
Method: as §2
Cost-effective cell production methods will be preferred over lengthy protocols and expensive recombinant protein-based reagents, and cryopreservation of cells will facilitate future work. Here, we used 3 small molecules (Y27632, SB431542, and purmorphamine) and 2 recombinant proteins (BMPRIA-Fc and DKK1). Several small molecule substitutes now exist for inhibition of BMP and WNT pathways. […] In addition, ˜25% of hESC-derived MGE-like cells were viable after cryopreservation and thawing, and thawed cells matured into neurons with functional properties as confirmed by electrophysiology.

## N#Cc1cc2nc(O)c(O)nc2cc1[N+](=O)[O-] [CNQX, 6-Cyano-2,3-dihydroxy-7-nitro-quinoxaline]
[1]; applied after BMI
  block of remaining spontaneous PSCs with fast decay-time: blocked

## CCN(CC)CCCCNc1ncc2cc(-c3cc(OC)cc(OC)c3)c(NC(=O)NC(C)(C)C)nc2n1 [PD173074]
hESC-derived cultures [2]; FGF inhibitor added from onset of differentiation (d0-25)
  cells expressing FOXG1: 55%
hESC-derived cultures [2]; FGF inhibitor added on day 14 (d14-25)
  effect on FOXG1 levels: no effect

## C[N+]1(C)CCc2cc3c(cc2[C@H]1[C@@H]1OC(=O)c2c1ccc1c2OCO1)OCO3.[I-] [BMI, bicuculline methiodide]
[1]
  block of spontaneous PSCs with slow decay-time: blocked
GABAA receptor; BMI 20 μM, hESC-derived neurons co-cultured with mouse glial cells, eight weeks post-differentiation
  block of spontaneous post-synaptic currents (sPSC): fully blocked
GABAA receptor; ChR2-EYFP hESC-derived neurons, blue light, neighboring neurons
  block of light-evoked PSCs: reversible blockade
GABAA receptor; co-culture seven weeks with ChR2 hESC-derived neurons
  block of light-evoked GABAergic-specific PSCs in primary human fetal cortical neurons: completely blocked

## c1ccc2c(Oc3nc(Nc4ccc(N5CCOCC5)cc4)c4ncn(C5CCCCC5)c4n3)cccc2c1 [purmorphamine]
HES-3 NKX2.1GFP/w hESCs; 2-6 μM purmorphamine versus 1-2 μM used
  GFP+ differentiation efficiency in EB cultures: slightly increased
HES-3 NKX2.1GFP/w hESCs; 25-day hybrid method, purmorphamine day 10-25, SB431542, BMPRIA-Fc and DKK1 throughout, FACS
  NKX2.1-GFP+ MGE precursor-like cell efficiency: 12%
HES-3 NKX2.1GFP/w hESCs; B27 media throughout 25-day protocol, early addition of five factors (Y27632, SB431542, BMPRIA-Fc, DKK1, purmorphamine)
  NKX2.1-GFP+ MGE precursor cells: 70%
HES-3 NKX2.1GFP/w hESCs; B27 media, early purmorphamine, inhibitors removed after two weeks (d14), protocol extended to day 35, FACS
  NKX2.1-GFP+ differentiation efficiency: up to 90%
HES-3 NKX2.1GFP/w hESCs; as hybrid method but purmorphamine from day 0-25
  NKX2.1-GFP+ MGE precursor-like cell efficiency: 1.9%
hESC-derived cultures [3]
  viability of later-stage monolayer cultures: decreased

B1: DKK1: Dickkopf homolog 1, recombinant protein WNT inhibitor (protein, UniProt O94907 32-266, looked up)
Dickkopf-related protein 1: TLNSVLNSNAIKNLPPPLGGAAGHPGSAVSAAPGILYPGGNKYQTIDNYQPYPCAEDEECGTDEYCASPTRGGDAGVQICLACRKRRKRCMRHAMCCPGNYCKNGICVSSDQNHFRGEIEETITESFGNDHSTLDGYSRRTTLSSKMYHTKGQEGSVCLRSSDCASGLCCARHFWSKICKPVLKEGQVCTKHRRKGSHGLEIFQRCYCGEGLSCRIQKDHHQASNSSRLHTCQRH
HES-3 NKX2.1GFP/w hESCs; DKK1 WNT inhibitor absent versus present
  GFP+ cell differentiation efficiency: similar
hESC-derived cultures [2]; DKK1 WNT inhibitor absent
  number of cells expressing telencephalic FOXG1: 45%
hESC-derived cultures [2]; with DKK1 WNT inhibitor
  number of cells expressing telencephalic FOXG1: 70%
